Assay results taken from patent EP2221291B1, “CYCLOHEXENONE COMPOUNDS FROM ANTRODIA CAMPHORATA AND PHARMACEUTICAL COMPOSITIONS THEREOF USEFUL FOR TREATING AUTOIMMUNE DISEASES” (Golden Biotechnology Corporation, priority 2007, dated 2009).

What was measured:
[1] = tested on: female NZB/WF1 SLE mice; test: Changes of proteinuria in SLE mouse model (Bio-Rad protein assay of urine); assay type: in vivo; details: for proteinuria level: after 6 weeks of experiment, oral once per day (cyclohexenone compounds 50 mg/kg; prednisolone 1.25 mg/kg), negative control 89.16 vs. 246 mg/dl
Method: (§1) Female NZB/WF1 mice spontaneously develop human SLE-like syndromes, such as generation of antinuclear autoantibodies, proteinuria, and renal toxicity to cause death. The disease is more severe in female mice than in male mice; the morbidity of female mice is also higher than that of male mice. Therefore, female NZB/WF1 mice were used for screening anti-SLE drugs in this study.
(§2) Thirty female NZB/WF1 mice (purchased from Jackson Lab, USA) between 12-24 weeks of age were analyzed biweekly to determine proteinuria levels, monthly to assess the titers of antinuclear autoantibody (ANA). The increased titers of ANA and positive response implicated that female NZB/WF1 mice were going to develop SLE and were ready for grouping. At 22 weeks of age, the animals showing the abovementioned syndromes were randomly divided into 3 groups (10 mice per group, water was administered to negative control group, steroid was given to positive control group, and cyclohexenone compounds of Antrodia camphorata was administered to experiment group), and the start time for the experiment was set as week zero. In addition, ten B6 mice (purchased from National Laboratory Animal Center, Taiwan) without SLE syndrome were normal mice served as blank group. Table 1 Treatment of animal groups
The blank group in Table 1 was B6 mice of no SLE syndrome, which received no treatment and normal diet for natural growth. NZB/WF1 female mice that were able to express SLE syndromes were served in negative control and positive control groups. Mice in the former group received normal water; in the latter were orally medicated with 1.25 mg/kg of prednisolone, the SLE drug. Mice in the experiment group were orally medicated with 50 mg/kg of cyclohexenone compounds from Example 1. […]
SLE patients develop renal inflammation and damage, which cause leakage of protein from kidney into the fluid. […] Ten µl of urine was assayed with Bio-Rad Protein Assay Dye Reagent Concentrate (Bio-Rad Laboratories, USA) and read under […] with an ELISA analyzer to determine the protein concentration with a standard curve.

[2] = tested on: anti-dsDNA antinuclear antibodies in female NZB/WF1 SLE mice; test: Titers of anti-dsDNA antinuclear antibodies in plasma of SLE mouse model (Mouse Anti-dsDNA IgG ELISA); assay type: in vivo; details: for titer of anti-dsDNA antinuclear antibodies decreased to: week 8, oral once per day (cyclohexenone compounds 50 mg/kg; prednisolone 1.25 mg/kg), reference of the percentage not stated
Method: as §1, §2
The blank group in Table 1 was B6 mice of no SLE syndrome, which received no treatment and normal diet for natural growth. NZB/WF1 female mice that were able to express SLE syndromes were served in negative control and positive control groups. Mice in the former group received normal water; in the latter were orally medicated with 1.25 mg/kg of prednisolone, the SLE drug. Mice in the experiment group were orally medicated with 50 mg/kg of cyclohexenone compounds from Example 1. The mice were fed with the abovementioned substances once per day starting at 23 weeks of age, and this period of time was referred to as the first week of this experiment. […]
The titers of dsDNA antinuclear antibodies were determined in this study to assess the effects of cyclohexenone compounds from Antrodia camphorata on SLE mice. […]

Structure (SMILES)	proteinuria level [1] [mg/dL]	increase in proteinuria level than that before experiment ([1]; after 6 weeks, oral 50 mg/kg once per day, negative control 2.76-fold) [fold]	titers of anti-dsDNA antinuclear antibodies compared with negative group ([2]; during 8 weeks of experiment, oral 50 mg/kg once per day)	titer of anti-dsDNA antinuclear antibodies decreased to [2]
COC1=C(OC)C(O)C(CC=C(C)CCC=C(C)CCC=C(C)C)C(C)C1=O (stereo not drawn) [4-hydroxy-2,3-dimethoxy-6-methyl-5(3,7,11-trimethyl-dodeca-2,6,10-trienyl)-cyclohex-2-enone]	118.2	1.3	significantly lower titers	34%
C[C@]12C=CC(=O)C=C1CC[C@@H]1[C@@H]2[C@@H](O)C[C@@]2(C)[C@H]1CC[C@]2(O)C(=O)CO [prednisolone, reference compound]	32.6			around 50%
